Experimental data published in patent US10682371B2, “Small molecule conjugates specifically activated in tumor microenvironment for targeting and use thereof” (priority 2014, dated 2020).

How the values were obtained:
[1] = test system: Human breast cancer MDA-MB435; assay: Multiple tumor models in nude mice: MDA-MB435; type: in vivo; conditions: 15 mg/kg once weekly for three weeks, Day 26
Protocol: (§1) 1) Corresponding tumor cells were purchased from American type culture collection (ATCC) and identified according the specification provided by ATCC. Cells were cultivated in DMEM culture solution containing 10% fetal bovine serum at 37° C. and 5% CO2. The cells were passaged for every three days and cells within the 15th passage were used.
(§2) 2) Production of tumor. 5×10^6 corresponding cells were subcutaneously injected to the back of the nude mice. Mice were randomly grouped after the tumor reached at least 100 mm^3. Then treatment began and the day on which the treatment began was day 1.
(§3) 3) Course of treatment. […] The control group was administered by physiological saline. Animals were administered once weekly for three weeks.
(§4) 3) Course of treatment. According to the clinical application of A1, A1 was administered in a dose of ⅙ MTD, i.v., 17.6 μmol/kg. The control group was administered by physiological saline. Animals were administered once weekly for three weeks.
(§5) 3) Course of treatment. According to the clinical application of B1, B1 was administered in a dose of ⅙ MTD, i.v., 17.6 μmol/kg. The control group was administered by physiological saline. Animals were administered once weekly for three weeks.
as §3, §3

[2] = test system: Human ovarian cancer SK-OV-3; assay: Multiple tumor models in nude mice: SK-OV-3; type: in vivo; conditions: 15 mg/kg once weekly for three weeks, Day 26
Protocol: as §1, §2, §3, §4, §5, §3, §3

Human colon cancer HT-29 = assay: Multiple tumor models in nude mice: HT-29; type: in vivo; conditions: 15 mg/kg once weekly for three weeks, Day 26
Protocol: as §1, §2, §3, §4, §5, §3, §3

[3] = test system: Human chronic leukemia K562; assay: Multiple tumor models in nude mice: K562; type: in vivo; conditions: 15 mg/kg once weekly for three weeks, Day 26
Protocol: as §1, §2, §3, §4, §5, §3, §3

[4] = Multiple tumor models in nude mice: HT1080; type: in vivo; conditions: Human colon caner HT1080; 15 mg/kg once weekly for three weeks; Day 26
Protocol: as §1, §2, §3, §4, §5, §3, §3

[5] = test system: Human pancreatic cancer Panc-1; assay: Multiple tumor models in nude mice: Panc-1; type: in vivo; conditions: 15 mg/kg once weekly for three weeks, Day 26
Protocol: as §1, §2, §3, §4, §5, §3, §3

[6] = test system: Human non-small cell lung cancer A549; assay: Multiple tumor models in nude mice: A549; type: in vivo; conditions: 15 mg/kg once weekly for three weeks, Day 26
Protocol: as §1, §2, §3, §4, §5, §3, §3

Human liver cancer Hepg2 = assay: Multiple tumor models in nude mice: Hepg2; type: in vivo; conditions: 15 mg/kg once weekly for three weeks, Day 26
Protocol: as §1, §2, §3, §4, §5, §3, §3

[7] = test system: Human renal cancer OS-RC-2; assay: Multiple tumor models in nude mice: OS-RC-2; type: in vivo; conditions: 15 mg/kg once weekly for three weeks, Day 26
Protocol: as §1, §2, §3, §4, §5, §3, §3

HT1080 cells = assay: Tumor treatment in nude mice, HT1080 model (Example 61); type: in vivo; conditions: for Size of tumor (mm^3) Day 13 / inhibitory rate on tumor Day 13 / Size of tumor (mm^3) Day 26 / inhibitory rate on tumor (Day 26): HT1080 in nude mice, IV once weekly for four weeks, E1-E4 15 mg/kg, mitomycin 2 mg/kg; for Inhibition on tumor growth, in words: HT1080, compared with mitomycin group and control group
Protocol: as §1, with “HT1080” for “Corresponding tumor”
2) Production of tumor. 5×10^6 HT1080 cells were subcutaneously injected to the back of the nude mice. Mice were randomly grouped after the tumor reached at least 100 mm^3. Then treatment began and the day on which the treatment began was day 1.
[…]. The control group was administered by physiological saline. Drugs were administered once weekly for four weeks.

[8] = test system: scar and choroidal neovascularization (CNV); assay: Inhibition of scar and choroidal neovascularization (CNV) by eye drops after laser photocoagulation; type: in vivo, C57 mice; conditions: for Maximal scar radius observed by pathological staining (pixel): 150 mW laser photocoagulation, eye drops daily, two weeks, C57 mice; for Treatment effect on scar radius and inhibition of macrophage, in words: eye drops, compared to the control group and the mitomycin group
Protocol: Animal: C57 mice of 16 weeks old, all female and 8 animals in each group.
(§6) Production and treatment of scar. […] Two weeks later, eye tissues were taken from 4 animals of each group for immunohistochemical (HE) staining. For another 4 animals, they were subjected to fixed irradiation through photocoagulation by 50 mW laser and then to treatment. 48 hours later, their eye tissues were taken, homogenated, filtered to isolate individual cells in the scar and choroidal neovascularization (CNV) tissues. The cells were washed by buffer twice and stained by biotin-conjugated anti-F4/80 (biotin-labeled precursor cell antigen from macrophage) and FITC-conjugated anti-CD45 (isothiocyanate fluorescein labeled leucocyte common antigen) at ambient temperature for 1 hour. Then the cells were washed by PBS containing 1% fetal bovine serum twice and then analyzed for the ratio of the macrophage precursor antigen positive cells in the leucocyte common antigen (CD45) positive cells by flow cytometry.

macrophage = assay: Macrophage precursor antigen (F4/80) positive cells in CD45 positive cells of scar/CNV tissue, flow cytometry; type: in vivo, C57 mice; conditions: 50 mW laser, 48 hours after treatment
Protocol: as §6

[9] = Maximum tolerated dose (MTD) / acute toxicity by single intravenous injection; conditions: female, BALB/C, mouse, in vivo, iv

Compound | inhibitory rate on tumor (Day 26) [1] | inhibitory rate on tumor (Day 26) [2] | inhibitory rate on tumor (Day 26) (Human colon cancer HT-29) | inhibitory rate on tumor (Day 26) [3] | inhibitory rate on tumor (Day 26) [4] | inhibitory rate on tumor (Day 26) [5] | inhibitory rate on tumor (Day 26) [6] | inhibitory rate on tumor (Day 26) (Human liver cancer Hepg2) | inhibitory rate on tumor (Day 26) [7] | Size of tumor (mm^3) Day 13 (HT1080 cells) | inhibitory rate on tumor Day 13 (HT1080 cells) | Size of tumor (mm^3) Day 26 (HT1080 cells) | inhibitory rate on tumor (Day 26) (HT1080 cells) | Inhibition on tumor growth, in words (HT1080 cells) | Maximal scar radius observed by pathological staining (pixel) [8] | Treatment effect on scar radius and inhibition of macrophage, in words [8] | F4/80+ cells among CD45+ cells (%) (macrophage) | MTD at 17 days [9]
COCCOCC(=O)N[C@H](C)C(=O)N[C@H](C)C(=O)N[C@H](CC(N)=O)C(=O)Nc1ccc(COC(=O)N2[C@@H]3CN4C5=C(C(=O)C(N)=C(C)C5=O)[C@H](COC(N)=O)[C@]4(OC)[C@@H]32)cc1 [Compound E1, 2-(2-methoxyethoxy) acetyl-L-Ala-L-Ala-L-Asn-4-amino benzyl mitomycin] | 86.3% | 84.5% | 86.7% | 77.3% | 95.4% | 86.5% | 95.3% | 85.7% | 81.3% | 438.15 ± 47.96 mm^3 | 51.9% | 331.57 ± 114.74 mm^3 | 78.9% | greatly improved | 332 ± 124 pixel | greatly improved treatment effect on scar radius and inhibition of macrophage | 7.1 ± 1.4% | ~90 mg/kg
COCCOCCOCCOCCOCCOCC(=O)N[C@H](C)C(=O)N[C@H](C)C(=O)N[C@H](CC(N)=O)C(=O)Nc1ccc(COC(=O)N2[C@H]3[C@@H]2CN2C4=C(C(=O)C(N)=C(C)C4=O)[C@H](COC(N)=O)[C@]32OC)cc1 [Compound E2] | – | – | – | – | – | – | – | – | – | 378.11 ± 68.46 mm^3 | 58.5% | 137.60 ± 156.42 mm^3 | 91.3% | greatly improved | 348 ± 146 pixel | greatly improved treatment effect on scar radius and inhibition of macrophage | 7.7 ± 1.7% | ~90 mg/kg
